Measured values: patent publication US6395785B1 (Orion Corporation, priority 1998, dated 2002)
Read-outs that look alike come from different tables or passages of the source.

Legend:
[1] = system: uterine weight in intact adult female Sprague-Dawley rats; experiment: Uterine weight in intact adult female rats; settings: p.o. 3.17 mg/kg daily or equimolar dose, two weeks
Method: (§2) The effects on uterine weight and on serum cholesterol levels were studied in intact and ovarectomized adult female Sprague-Dawley rats. […] In the ovarectomy study the study drug was given p.o. at a daily dose of 0.1, 1 or 10 mg/kg for 4 weeks and comparison was made with the corresponding Z-isomer and estradiol (100 μg/kg). The serum cholesterol content was determined by an enzymatic method. In the ovarectomy study the serum cholesterol and cholesterol precursor molecule content was determined by gas-liquid chromatography.

Hep G2 cell cultures = settings: for Cholesterol biosynthesis level (% of control): 2 hours, Hep G2; for Effect on cholesterol biosynthesis (in words): in vitro cell culture system, 0.01 to 10 micromolar
Method: The effects on cholesterol biosynthesis was studied in vitro in Hep G2 cell cultures using ^14C-acetate as cholesterol precursor. The test compound was added into the culture medium at concentrations from 0.01 to 10 micromolar. After 2 hours the culture was stopped and the newly synthesized cholesterol was quantitated by thin-layer chromatography. Comparison was made with the Z-isomer.

serum cholesterol [2] = settings: for Serum cholesterol content (control level taken as 1.00): ovarectomized rats; for Decrease of serum cholesterol level (maximum): ovarectomy study, over the doses tested
Method: as §2

[3] = system: uterine weight in ovarectomized adult female Sprague-Dawley rats; experiment: Uterine weight in ovarectomized adult female rats; type: in vivo; settings: for Relative uterine weight (control level taken as 1.00): ovarectomized rats
Method: as §2

serum cholesterol [4] = experiment: Serum cholesterol in intact adult female rats; settings: for Serum cholesterol content (control level taken as 1.00; mean ± SD, n = 3): intact rats, p.o. 3.17 mg/kg daily or equimolar dose, two weeks
Method: as §2

[5] = system: uterine weight in immature female Sprague-Dawley rats; settings: for Average uterine weight (weight after mere E2-treatment was taken as 1.00): drug alone
Method: (§1) The estrogenic/antiestrogenic activity of the study drug was tested by measuring the effect on the uterine weight in immature (18 days old) female Sprague-Dawley rats. The compound was given p.o. in a PEG-solution for 3 days (n=5/group). At the same time the ability of the study drug to inhibit estrogen-induced increase in uterine weight was studied in rats given estradiol 50 μg/kg s.c. Comparison was made with the corresponding Z-isomer.

[6] = system: estrogen-induced increase in uterine weight
Method: as §1

[7] = system: serum cholesterol precursor molecule; settings: ovarectomy study
Method: as §2

[8] = 0.1 mg/kg p.o. for 3 days + E2 (estradiol 50 μg/kg s.c.)
[9] = 0.5 mg/kg p.o. for 3 days + E2 (estradiol 50 μg/kg s.c.)
[10] = 1 mg/kg p.o. for 3 days + E2 (estradiol 50 μg/kg s.c.)
[11] = 10 mg/kg p.o. for 3 days + E2 (estradiol 50 μg/kg s.c.)

| Compound | Relative uterine weight (control level taken as 1.00; mean ± SD, n = 3) [1] | Cholesterol biosynthesis level (% of control) (Hep G2 cell cultures; 0.01 μM) | Cholesterol biosynthesis level (% of control) (Hep G2 cell cultures; 0.1 μM) | Cholesterol biosynthesis level (% of control) (Hep G2 cell cultures; 1 μM) | Cholesterol biosynthesis level (% of control) (Hep G2 cell cultures; 10 μM) | Effect on cholesterol biosynthesis (in words) (Hep G2 cell cultures) | Serum cholesterol content (control level taken as 1.00) (serum cholesterol [2]; 1 mg/kg p.o. daily, 4 weeks) | Serum cholesterol content (control level taken as 1.00) (serum cholesterol [2]; 10 mg/kg p.o. daily, 4 weeks) | Decrease of serum cholesterol level (maximum) (serum cholesterol [2]) | Relative uterine weight (control level taken as 1.00) ([3]; 0.1 mg/kg p.o. daily, 4 weeks) | Relative uterine weight (control level taken as 1.00) ([3]; 1 mg/kg p.o. daily, 4 weeks) | Relative uterine weight (control level taken as 1.00) ([3]; 10 mg/kg p.o. daily, 4 weeks) | Serum cholesterol content (control level taken as 1.00; mean ± SD, n = 3) (serum cholesterol [4]) | Average uterine weight (weight after mere E2-treatment was taken as 1.00) ([5]; 0.1 mg/kg p.o. for 3 days) | Average uterine weight (weight after mere E2-treatment was taken as 1.00) ([5]; 0.5 mg/kg p.o. for 3 days) | Average uterine weight (weight after mere E2-treatment was taken as 1.00) ([5]; 1 mg/kg p.o. for 3 days) | Average uterine weight (weight after mere E2-treatment was taken as 1.00) ([5]; 10 mg/kg p.o. for 3 days) | Average uterine weight (weight after mere E2-treatment was taken as 1.00) [6, 8] | Average uterine weight (weight after mere E2-treatment was taken as 1.00) [6, 9] | Average uterine weight (weight after mere E2-treatment was taken as 1.00) [6, 10] | also measured |
| --- | --- | --- | --- | --- | --- | --- | --- | --- | --- | --- | --- | --- | --- | --- | --- | --- | --- | --- | --- | --- | --- |
| OCCOc1ccc(/C(=C(/CCCl)c2ccccc2)c2ccccc2)cc1 [1271a (Z), Z-2-[4-(4-chloro-1,2-diphenyl-but-1-enyl)phenoxy]ethanol] | 0.75 ± 0.06 | 143 % of control | 127 % of control | 129 % of control | 132 % of control | had an opposite effect | 0.96 | 0.66 | up to 34% | 1.22 | 1.78 | 2.04 | 0.65 ± 0.10 | 0.27 | 0.43 | 0.53 | 0.75 | 1.18 | 1.11 | 0.91 | Serum cholesterol content (control level taken as 1.00) (serum cholesterol [2]; 0.5 mg/kg): 0.90; Serum cholesterol content (control level taken as 1.00) (serum cholesterol [2]; 5 mg/kg): 0.89; Efficacy in decreasing serum cholesterol level (in words) (serum cholesterol [4]; intact adult female rats, compared with the other drugs): less effective; Average uterine weight (weight after mere E2-treatment was taken as 1.00) [6, 11]: 0.91; Effect on serum cholesterol precursor molecule level (in words) [7]: not |
| OCCOc1ccc(/C(=C(\CCCl)c2ccccc2)c2ccccc2)cc1 [1271b (E), E-2-[4-(4-chloro-1,2-diphenyl-but-1-enyl)phenoxy]ethanol] | 0.85 ± 0.07 | 89 % of control | 90 % of control | 89 % of control | 84 % of control | inhibited slightly cholesterol biosynthesis | 0.62 | 0.23 | up to 77% | 1.54 | 1.50 | 1.53 | 0.43 ± 0.05 | 0.37 | 0.45 | 0.44 | 0.75 | 0.81 | 0.82 | 0.57 | Serum cholesterol content (control level taken as 1.00) (serum cholesterol [2]; 0.1 mg/kg p.o. daily, 4 weeks): 0.92; Increase of relative uterus weight ([3]; ovarectomy study, 0.1, 1 or 10 mg/kg p.o., 4 weeks): 1.5 fold; Estrogenic and antiestrogenic effect compared to the corresponding Z-isomer (in words) ([5]; immature rat uterine weight test): approximately equal estrogenic and antiestrogenic effect; Average uterine weight (weight after mere E2-treatment was taken as 1.00) [6, 11]: 0.83; Effect on serum cholesterol precursor molecule level (in words) [7]: increased slightly |
| C[C@]12CC[C@@H]3c4ccc(O)cc4CC[C@H]3[C@@H]1CC[C@@H]2O [Estradiol] | 1.29 ± 0.06 | – | – | – | – | – | – | – | – | – | – | – | 0.48 ± 0.09 | – | – | – | – | – | – | – | Increase of relative uterus weight ([3]; ovarectomy study, estradiol 100 μg/kg): 3.3 fold |
| O=C(c1ccc(OCCN2CCCCC2)cc1)c1c(-c2ccc(O)cc2)sc2cc(O)ccc12 [Raloxifene] | 0.77 ± 0.21 | – | – | – | – | – | – | – | – | – | – | – | 0.48 ± 0.09 | – | – | – | – | – | – | – | – |
| CN(C)CCOc1ccc(/C(=C(/CCCl)c2ccccc2)c2ccccc2)cc1 [Toremifene (E)] | 1.09 ± 0.10 | – | – | – | – | – | – | – | – | – | – | – | 0.40 ± 0.18 | – | – | – | – | – | – | – | – |
